Test systems include MDA-MB-231 breast; SN12K1 renal; DLD-1 colon; P388/ADR leukemia; TK-10 renal.
Assay in all cases: NCI tumour cell line growth inhibition, 48 h

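Cells were grown in 96-well plates and exposed to each compound for 48 hours at five concentrations; endpoints were interpolated linearly between bracketing concentrations, or set to the highest concentration if not reached. TGI is the concentration that stops growth completely.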

In the assay on MDA-MB-231 breast, `C[C@H]1SC(c2ccc(Cl)cc2Cl)N(NC(=O)c2ccncc2)C1=O` (stereo not given in full) had a TGI of over 100 µM.

With `CN(C)CCNC(=O)c1cccc2nc(-c3ccccc3)oc12`, the TGI in the assay on SN12K1 renal was over 75.5 µM; in the assay on DLD-1 colon, over 100 µM; with P388/ADR leukemia, over 64.3 µM.

As to `CCOC(=O)/C(O)=C1\C(=O)N(C)C(=O)C1c1cccc(OC)c1` (stereo not given), the TGI with SN12K1 renal, in the assay with DLD-1 colon and in the assay with P388/ADR leukemia was over 100 µM each time.

In the assay on TK-10 renal, `CC(=O)OCc1c(O)c2c(c(O)c1COC(C)=O)C(=O)C=CC2=O` returned a TGI of 30 µM.

Take `O=c1cc(-c2cc(O)c(O)c(-c3c(O)cc4oc(-c5ccc(O)c(O)c5)cc(=O)c4c3O)c2)oc2cc(O)cc(O)c12`: the TGI in the assay with TK-10 renal and with MDA-MB-231 breast was over 25 µM each time.

These data come from PubChem BioAssay (NCI).
